In patent US12410143B2, “Therapeutic inhibitors of the reverse mode of ATP synthase” (priority 2017, dated 2025):
“Also recorded” adds a separate entry of the source. Where two headings read alike, the source gives them in different places.

Legend:
F1F0 ATP hydrolase = molecular target: T1, F1F0 ATP hydrolase (Bos taurus, UniProt P00829+P19483); conditions: cited from earlier work
T1 construct: in NADH-linked and NADPH-linked sub-mitochondrial (SMP) assays respectively; host or cells: sub-mitochondrial particles (SMPs)

NCI-60 cancer cell lines [1] = test: NCI-60 one-dose in vitro assay; type: cell-based, human
Text: FIGS. 1, 2, 3, 4, 5, 6 show results from the NCI-60 one-dose in vitro assay at the Developmental Therapeutics Program (DTP), at the National Cancer Institute (NCI, Bethesda, MD, USA). Its protocol is well known to those of the art, and it tests the effect, if any, of a test compound on the growth/survivability of a cancer cell line as compared to the no compound control. […] However, a constant is that this 59 always has representative cell lines from leukemia, melanoma and cancers of the lung, colon, brain, ovary, breast, prostate and kidney. In a one-dose NCI compound test report, NCI report a number for each cell line, which they call “Growth Percent”, which is its growth relative to the no-compound control, and relative to the time zero number of cells. This reported parameter allows detection of both growth inhibition (values between 0 and 100) and lethality (values less than 0). For example, an NCI “Growth Percent” value of 100 means no growth inhibition. Value of 40 means 60% growth inhibition. Value of 0 means no net growth over the course of the experiment. Value of −40 means 60% lethality. Value of −100 means all cells are dead. I don't present NCI one-dose data in this original format. Instead, if the NCI “Growth Percent” value for a cell is positive, it is manipulated: [100 minus this original NCI-60 “Growth Percent” data point], to yield the percentage “Growth Inhibition”. If the original NCI “Growth Percent” value for a cell is negative, it is made positive to be the percentage of original cancer cells (at time zero) killed: “Percentage Killed” {and in these cases, of course, all growth has been inhibited, so percentage “Growth Inhibition” is then specified to be 100% for this cancer cell line}. In my one-dose figures, “Growth Inhibition” (0-100%) is presented on the x-axis and, if applicable, “Percentage Killed” (0-100%) further along on the x-axis. The latter is applicable when there is not just cancer growth inhibition but a reduction in the number of cancer cells from the start time i.e. when the compound is not merely slowing cancer growth, but is actively reducing the number of cancer cells from the starting number. In cases where there is only growth inhibition, only “Growth inhibition” is presented on the x-axis.

NCI-60 cancer cell lines [2] = test: NCI-60 five-dose in vitro assay; type: cell-based, human; conditions: mean of all 59 cell lines
Text: The compounds of this invention act by a distinctly different mechanism, upon cancer cells, than oligomycin. […] The degree of (dis)similarity can be measured using the COMPARE algorithm, which employs a Pearson correlation coefficient. […] This mechanistic distinction is vital because polyketide F1F0 ATP synthase inhibitors are poisonous to normal cells, which means they fail in cancer xenograft mouse experiments and are without clinical utility.
Results from the NCI-60 five-dose in vitro assay at the Developmental Therapeutics Program (DTP), at the National Cancer Institute (NCI, Bethesda, MD, USA). In this assay, which is well known to those of the art, a compound is tested, in vitro, against 59 different cancer cell lines, sourced from 9 different tissue types, across 5 different concentrations. On the y-axis is the aforementioned “Growth Percentage” parameter used by NCI, which is growth relative to the no-compound control, and relative to the time zero number of cells. This parameter allows detection of both growth inhibition (values between 0 and 100) and lethality (values less than 0). […] Each cancer cell line has a GI50 value and the “mean GI50” of all 59 cell lines can be calculated.

ex vivo rat heart = conditions: 10 μM [11]; cited from earlier work
F1F0-ATP hydrolysis = molecular target: T2, F1F0-ATP hydrolysis (Homo sapiens, UniProt P06576+P25705); conditions: cited from earlier work
T2 construct: BTB06584 potency information (isn't an EC50) is from a whole cell study [13]

mouse cortical neurons = conditions: 100 μM [13]; cited from earlier work
F1F0-ATP synthesis = molecular target: T3, F1F0-ATP synthesis (Homo sapiens, UniProt P06576+P25705); conditions: [13]; cited from earlier work
T3 construct: BTB06584 potency information (isn't an EC50) is from a whole cell study [13]

[3] = test system: HL-1 cardiac muscle cell line; conditions: 3 μM; HL-1 cells; data from [12]; cited from earlier work
[4] = test system: xenograft mouse models of cancer; conditions: data in [16]; cited from earlier work
[5] = cited from earlier work
[6] = Formula (I) examples, SMP data from [5], read-out: EC50 F1F0 ATP hydrolase

Question: With N#CN=C(Nc1cccc(Cl)c1Cl)NC(Cn1ccnc1)c1ccc(Cl)cc1Cl (centres unmarked) [2,3-Cl2/CN] as the compound, how does the EC50 (F1F0 ATP hydrolase; [6]) read?
Answer: 2490 nM

Question: For N#CN=C(Nc1cccc(Cl)c1)NC(Cn1ccnc1)c1ccc(Cl)cc1Cl (centres unmarked) [3-CL/CN], which EC50 (F1F0 ATP hydrolase; [6]) is on record?
Answer: 9170 nM

Question: With CC(=O)Nc1ccc(S(=O)(=O)N2Cc3ccccc3N(Cc3cnc[nH]3)C(CCc3ccccc3)C2)cc1 (centres unmarked) [4-(AcNH)—Ph/SO2/5-yl] as the compound, how does the EC50 (F1F0 ATP hydrolase; Formula (II) examples, SMP data from [8], read-out: EC50F1F0ATP hydrolase) read?
Answer: 2980 nM

Question: Which EC50 (F1F0 ATP hydrolase; [6]) does the source give for N#Cc1ccc(C(=O)N=C(Nc2ccc(Cl)cc2)NC(Cn2ccnc2)c2ccc(Cl)cc2Cl)cc1 (centres unmarked) [4-Cl/C(═O)4-CN—Ph] here?
Answer: 280 nM

Question: Which EC50 (F1F0 ATP hydrolase; [6]) does the source give for CCC(=O)N=C(Nc1ccc(Cl)cc1)NC(Cn1ccnc1)c1ccc(Cl)cc1Cl (centres unmarked) [4-Cl/C(═O)Et] here?
Answer: 2270 nM

Question: With N#CN=C(Nc1ccc(Cl)cc1)NC(Cn1ccnc1)c1ccc(Cl)cc1Cl (centres unmarked) [4-Cl/CN] as the compound, how does the EC50 (F1F0 ATP hydrolase; [6]) read?
Answer: 8800 nM

Question: For N#Cc1cccc(C(=O)/N=C(\Nc2ccc(Cl)cc2)N[C@@H](Cn2ccnc2)c2ccc(Cl)cc2Cl)c1 [6a], which “anti-cancer activity (NCI one-dose assay)” value (NCI-60 cancer cell lines [1]; 10 μM) is on record?
Answer: exerted anti-cancer activity

Question: And the “inhibits F1F0-ATP hydrolysis” value (F1F0 ATP hydrolase; stereoisomers of 19a [5-6])?
Answer: not

Question: Which “anti-cancer activity (NCI one-dose assay)” value (NCI-60 cancer cell lines [1]; 10 μM) does the source give for N#Cc1cccc(C(=O)/N=C(\Nc2ccc(Cl)cc2)NC(Cn2ccnc2)c2ccc(Cl)cc2Cl)c1 (centres unmarked) [19a] here?
Answer: more anti-cancer activity than BMS-199264

Question: Which results are given for CC1(C)Oc2ccc(S(=O)(=O)N3CCCCC3)cc2[C@@H](N(Cc2ncc[nH]2)c2ccc(Cl)cc2)[C@@H]1O.Cl [BMS-199264 hydrochloride]?
Answer: anti-cancer activity (NCI one-dose assay) (NCI-60 cancer cell lines [1]; 10 μM): Anti-cancer activity; anti-cancer activity (NCI one-dose assay) (NCI-60 cancer cell lines [1]; 100 μM): Anti-cancer activity; GI50 (NCI-60 cancer cell lines [2]): 3.9 µM

Question: What does the source list for CC1(C)Oc2ccc(S(=O)(=O)N3CCCCC3)cc2[C@@H](N(Cc2ncc[nH]2)c2ccc(Cl)cc2)[C@@H]1O [BMS-199264]?
Answer: anti-cancer activity (NCI one-dose assay) (NCI-60 cancer cell lines [1]; 10 μM): exerts anti-cancer activity; harm to normal cells (ex vivo rat heart) (ex vivo rat heart): does not harm ex vivo rat heart; also recorded: doesn't harm normal cells

Question: What does the source list for O=C(Oc1cc(S(=O)(=O)c2ccccc2)ccc1[N+](=O)O)c1ccc(Cl)cc1 [BTB06584]?
Answer: anti-cancer activity (NCI one-dose assay) (NCI-60 cancer cell lines [1]; 10 μM): No anti-cancer activity and none; anti-cancer activity (NCI one-dose assay) (NCI-60 cancer cell lines [1]; 100 μM): exerts anti-cancer activity; inhibitory potency for F1F0-ATP hydrolysis (F1F0-ATP hydrolysis; 10 μM [13]): none; concentration required for inhibiting F1F0-ATP hydrolysis (F1F0-ATP hydrolysis; whole cell study [13]): ≥ 100 µM; harm to normal cells (mouse cortical neurons) (mouse cortical neurons): isn't harmful to normal cells; inhibition of F1F0-ATP synthesis (F1F0-ATP synthesis): not inhibiting F1F0-ATP synthesis

Question: For CC[C@H]1/C=C/C=C/C[C@@H](C)[C@H](O)[C@@](C)(O)C(=O)[C@@H](C)[C@H](O)[C@@H](C)C(=O)[C@@H](C)[C@H](O)[C@@H](C)/C=C/C(=O)O[C@@H]2[C@H](C)[C@H](CC1)O[C@@]1(O[C@@H](C[C@@H](C)O)[C@@H](C)CC1=O)[C@H]2C [Oligomycin B], which O2 consumption change [3] is on record?
Answer: −40%

Question: With CC[C@H](O)C[C@@H]1O[C@]2(CC[C@H]1C)C[C@@H]1OC(=O)/C=C/[C@](C)(O)[C@@H](O)[C@H](C)[C@@H](O)[C@@H](O[C@H]3C[C@@H](OC)[C@@H](O)[C@@H](C)O3)[C@H](O)[C@](C)(O)CCC/C=C\[C@H]3C[C@H](C)CO[C@@]3(O)C[C@H](O2)[C@H]1C [cytovaricin] as the compound, how does the “efficacy in xenograft mouse models of cancer” value [4] read?
Answer: don't work

Question: For CC[C@H]1/C=C/C=C/C[C@@H](C)[C@H](O)[C@@](C)(O)C(=O)[C@@H](C)[C@H](O)[C@@H](C)C(=O)[C@@H](C)[C@H](O)[C@@H](C)/C=C/C(=O)O[C@@H]2[C@H](C)[C@H](CC1)O[C@]1(CC[C@H](C)[C@H](C[C@@H](C)O)O1)[C@H]2C [oligomycin], which “inhibition of F1F0 ATP hydrolysis versus F1F0 ATP synthesis” value (F1F0 ATP hydrolase; SMP assays [11]) is on record?
Answer: inhibits F1F0 ATP hydrolysis less than F1F0 ATP synthesis

Question: What about the “time within which healthy rats are killed” value ([5]; 1 mg/kg, n=10) of the same compound?
Answer: ≤ 48 h

Question: And the LD33 ([5]; rats)?
Answer: 0.5 mg/kg

Question: Which “efficacy in xenograft mouse models of cancer” value [4] does the source give for CC[C@@H](O)C[C@H]1CCC[C@@]2(C[C@@H]3OC(=O)/C=C/[C@@](C)(O)[C@@H](O)[C@H](C)[C@@H](O)[C@H](O[C@H]4CC[C@H](N(C)C)[C@H](C)O4)[C@@H](O)[C@](C)(O)CCCCC/C=C/[C@@H]4CC(C)(C)O[C@@]4(O)C[C@H](O2)[C@H]3C)O1 [ossamycin] here?
Answer: don't work
